{"source": "PubChem BioAssay AID180", "about": "(DTP/NCI, 2004)", "test_system": "BDF1 mice, Adenocarcinoma 755 s.c., tumor weight T/C", "assay": "NCI In Vivo Anticancer Drug Screen. Data for tumor model Adenocarcinoma 755 (subcutaneous) in B6D2F1 (BDF1) mice", "conditions": "endpoint: mean tumor weight, higher = larger tumour", "procedure,_shortened": "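Tumor-bearing mice receive test compound while controls get vehicle alone. Antitumor effect is scored from survival or tumor dimensions as a T/C quotient.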", "note": "Several values for one entry are separate records, joined by “and”; a condition that tells them apart may be missing. Equal values may be shown once.", "data": [{"smiles": "CCC(=O)O[C@H]1CC[C@H]2[C@@H]3CCC4=CC(=O)CC[C@]4(C)[C@H]3CC[C@]12C", "values": [{"measurement": "T/C", "setting": "dose: 125.0 mg/kg/injection, schedule: Q01DX011 (sc), vehicle: steriod suspending solution", "value": "101 % of control and 104 % of control"}, {"measurement": "T/C", "setting": "dose: 400.0 mg/kg/injection, schedule: Q01DX011 (sc), vehicle: steriod suspending solution", "value": "69 % of control"}, {"measurement": "T/C", "setting": "dose: 666.66 mg/kg/injection, schedule: Q01DX011 (sc), vehicle: steriod suspending solution", "value": "61 % of control"}]}, {"smiles": "CCCCn1cnc2c(SCc3ccccn3)nc(N)nc21", "values": [{"measurement": "T/C", "setting": "dose: 3.6 mg/kg/injection, schedule: Q01DX011 (ip), vehicle: methylcellulose (MC)", "value": "6 % of control"}, {"measurement": "T/C", "setting": "dose: 7.25 mg/kg/injection, schedule: Q01DX011 (ip), vehicle: methylcellulose (MC)", "value": "2 % of control"}]}, {"smiles": "O=C(NC(CO)C(=O)O)C(Cl)Cl", "note": "(stereo unspecified)", "values": [{"measurement": "T/C", "setting": "dose: 1000.0 mg/kg/injection, schedule: Q01DX011 (ip), vehicle: methylcellulose (MC)", "value": "93 % of control"}]}, {"smiles": "O=NN1CCN(N=O)CC1", "values": [{"measurement": "T/C", "setting": "dose: 6.21 mg/kg/injection, schedule: Q01DX011 (ip), vehicle: carboxymethylcellulose (CMC)", "value": "76 % of control"}, {"measurement": "T/C", "setting": "dose: 7.36 mg/kg/injection, schedule: Q01DX011 (ip), vehicle: carboxymethylcellulose (CMC)", "value": "69 % of control"}, {"measurement": "T/C", "setting": "dose: 11.75 mg/kg/injection, schedule: Q01DX011 (ip), vehicle: carboxymethylcellulose (CMC)", "value": "98 % of control and 78 % of control"}, {"measurement": "T/C", "setting": "dose: 12.43 mg/kg/injection, schedule: Q01DX011 (ip), vehicle: carboxymethylcellulose (CMC)", "value": "85 % of control"}, {"measurement": "T/C", "setting": "dose: 14.72 mg/kg/injection, schedule: Q01DX011 (ip), vehicle: carboxymethylcellulose (CMC)", "value": "101 % of control"}, {"measurement": "T/C", "setting": "dose: 18.8 mg/kg/injection, schedule: Q01DX011 (ip), vehicle: carboxymethylcellulose (CMC)", "value": "157 % of control"}, {"measurement": "T/C", "setting": "dose: 23.5 mg/kg/injection, schedule: Q01DX011 (ip), vehicle: carboxymethylcellulose (CMC)", "value": "69 % of control and 83 % of control"}, {"measurement": "T/C", "setting": "dose: 23.56 mg/kg/injection, schedule: Q01DX011 (ip), vehicle: carboxymethylcellulose (CMC)", "value": "88 % of control"}, {"measurement": "T/C", "setting": "dose: 24.85 mg/kg/injection, schedule: Q01DX011 (ip), vehicle: carboxymethylcellulose (CMC)", "value": "56 % of control"}, {"measurement": "T/C", "setting": "dose: 29.45 mg/kg/injection, schedule: Q01DX011 (ip), vehicle: carboxymethylcellulose (CMC)", "value": "99 % of control and 100 % of control"}, {"measurement": "T/C", "setting": "dose: 31.33 mg/kg/injection, schedule: Q01DX011 (ip), vehicle: carboxymethylcellulose (CMC)", "value": "57 % of control"}, {"measurement": "T/C", "setting": "dose: 39.26 mg/kg/injection, schedule: Q01DX011 (ip), vehicle: carboxymethylcellulose (CMC)", "value": "67 % of control"}, {"measurement": "T/C", "setting": "dose: 40.0 mg/kg/injection, schedule: Q01DX011 (ip), vehicle: carboxymethylcellulose (CMC)", "value": "99 % of control"}, {"measurement": "T/C", "setting": "dose: 45.0 mg/kg/injection, schedule: Q01DX011 (ip), vehicle: carboxymethylcellulose (CMC)", "value": "100 % of control"}, {"measurement": "T/C", "setting": "dose: 50.0 mg/kg/injection, schedule: Q01DX011 (ip), vehicle: carboxymethylcellulose (CMC)", "value": "86 % of control"}, {"measurement": "T/C", "setting": "dose: 55.0 mg/kg/injection, schedule: Q01DX011 (ip), vehicle: carboxymethylcellulose (CMC)", "value": "102 % of control"}]}, {"smiles": "Fc1ccccc1CSc1ncnc2c1ncn2C1CCCCO1", "note": "(stereo unspecified)", "values": [{"measurement": "T/C", "setting": "dose: 30.0 mg/kg/injection, schedule: Q01DX011 (ip), vehicle: methylcellulose (MC)", "value": "21 % of control"}]}, {"smiles": "C=CC1OCCN1CC", "note": "(stereo unspecified)", "values": [{"measurement": "T/C", "setting": "dose: 12.5 mg/kg/injection, schedule: Q01DX011 (ip), vehicle: other", "value": "106 % of control"}, {"measurement": "T/C", "setting": "dose: 50.0 mg/kg/injection, schedule: Q01DX011 (ip), vehicle: other", "value": "87 % of control"}]}, {"smiles": "Nc1nc(=S)cc(Nc2ccc(Cl)c(Cl)c2)[nH]1", "values": [{"measurement": "T/C", "setting": "dose: 15.0 mg/kg/injection, schedule: Q01DX011 (ip), vehicle: methylcellulose (MC)", "value": "114 % of control"}, {"measurement": "T/C", "setting": "dose: 31.0 mg/kg/injection, schedule: Q01DX011 (ip), vehicle: methylcellulose (MC)", "value": "92 % of control"}]}, {"smiles": "CC(=O)c1cc(C)[nH]c1C", "values": [{"measurement": "T/C", "setting": "dose: 29.0 mg/kg/injection, schedule: Q01DX011 (ip), vehicle: carboxymethylcellulose (CMC)", "value": "58 % of control"}, {"measurement": "T/C", "setting": "dose: 57.5 mg/kg/injection, schedule: Q01DX011 (ip), vehicle: carboxymethylcellulose (CMC)", "value": "99 % of control"}, {"measurement": "T/C", "setting": "dose: 115.0 mg/kg/injection, schedule: Q01DX011 (ip), vehicle: carboxymethylcellulose (CMC)", "value": "29 % of control"}, {"measurement": "T/C", "setting": "dose: 115.0 mg/kg/injection, schedule: Q01DX011 (ip), vehicle: methylcellulose (MC)", "value": "96 % of control and 77 % of control"}]}, {"smiles": "C=CC(COC(C)=O)N1CC1", "note": "(stereo unspecified)", "values": [{"measurement": "T/C", "setting": "dose: 3.25 mg/kg/injection, schedule: Q01DX011 (ip), vehicle: saline", "value": "58 % of control and 76 % of control"}, {"measurement": "T/C", "setting": "dose: 3.25 mg/kg/injection, schedule: Q01DX011 (oral), vehicle: saline", "value": "193 % of control"}, {"measurement": "T/C", "setting": "dose: 7.5 mg/kg/injection, schedule: Q01DX011 (oral), vehicle: saline", "value": "228 % of control"}, {"measurement": "T/C", "setting": "dose: 15.0 mg/kg/injection, schedule: Q01DX011 (oral), vehicle: saline", "value": "157 % of control"}, {"measurement": "T/C", "setting": "dose: 30.0 mg/kg/injection, schedule: Q01DX011 (oral), vehicle: saline", "value": "19 % of control"}]}]}
